Patent US8778894B2, “Luteolin and diosmin/diosmetin as novel STAT3 inhibitors for treating autism” (University of South Florida, priority 2008, dated 2014)

Key:
[1] = tested on: IL-6 induced JAK2 phosphorylation; assay: JAK2 phosphorylation in brain homogenates of IL-6/MIA newborn mice, Western blot; assay type: in vivo; settings: dams IL-6 5 μg i.p. at E12.5; S31-201 4 μg i.p. or diosmin 10 mg/kg/day oral; vs IL-6 only, P<0.005
Method: (§1) Cultured cells were lysed in ice-cold lysis buffer (20 mM Tris, pH 7.5, 150 mM NaCl, 1 mM EDTA, 1 mM EGTA, 1% v/v Triton X-100, 2.5 mM sodium pyrophosphate, 1 mM β-glycerolphosphate, 1 mM Na3VO4, 1 μg/mL leupeptin, 1 mM PMSF) as described previously (Tan et al. 2002). Mouse brains were isolated under sterile conditions on ice and placed in ice-cold lysis buffer. Brains were then sonicated on ice for approximately 3 min, allowed to stand for 15 min at 4° C., then centrifuged at 15,000 rpm for 15 min at 4° C. Total protein content was estimated using the BCA protein assay (Pierce Biotechnology) and aliquots corresponding to 100 μg of total protein were electrophoretically separated using 10% Tris gels. Electrophoresed proteins were then transferred to nitrocellulose membranes (Bio-Rad, Richmond, Calif.), washed in Tris buffered saline with 0.1% Tween-20 (TBS/T), and blocked for 1 h at ambient temperature in TBS/T containing 5% (w/v) non-fat dry milk. After blocking, membranes were hybridized overnight at 4° C. with various primary antibodies. Membranes were then washed 3× for 5 min each in TBS/T and incubated for 1 h at ambient temperature with the appropriate HRP-conjugated secondary antibody (1:1000, Pierce Biotechnology). […] Densitometric analysis was conducted using a FluorS Multiimager with Quantity One™ software (Bio-Rad, Hercules, Calif.). […]

[2] = tested on: IL-6 induced STAT3 phosphorylation; assay: STAT3 phosphorylation in brain homogenates of IL-6/MIA newborn mice, Western blot; assay type: in vivo; settings: dams IL-6 5 μg i.p. at E12.5; S31-201 4 μg i.p. or diosmin 10 mg/kg/day oral; vs IL-6 only, P<0.005
Method: as §1

TNF-α [3] = assay: TNF-α ELISA in brain homogenates of IL-6/MIA newborn mice; assay type: in vivo; settings: dams IL-6 5 μg i.p.; S31-201 4 μg i.p. or diosmin 10 mg/kg/day oral; P<0.01
Method: (§2) Mouse brain homogenates were prepared as described above and used at a dilution of 1:10 in PBS for these assays. Brain tissue-solubilized cytokines were quantified using commercially available ELISAs that allow for detection of IL-1β, and TNF-α. Cytokine detection was carried out according to the manufacturer's instruction. Total protein content was determined as described above and data represented as pg of cytokine/mg total cellular protein for each cytokine.
(§3) Pro-inflammatory cytokine analysis by ELISA was conducted on these newborn mouse brain homogenates. Data are represented as mean±SD of each cytokine in brain homogenates (pg/mg total protein) from these newborn mice.

IL-1β [4] = assay: IL-1β ELISA in brain homogenates of IL-6/MIA newborn mice; assay type: in vivo; settings: dams IL-6 5 μg i.p.; S31-201 4 μg i.p. or diosmin 10 mg/kg/day oral; P<0.01
Method: as §2, §3

IL-6/MIA adult offspring [5] = settings: for open-field test, entries into the center: adult offspring of IL-6 treated dams co-treated with S31-201 4 μg i.p. or diosmin 10 mg/kg/day oral, P<0.01
Method: Pregnant C57BL/6 mice, embryonic day 2 (E2) were obtained from Jackson Laboratory (Bar Harbor, […].) and individually housed and maintained in an animal facility of the University of South Florida (USF). All subsequent experiments were performed in compliance with protocols approved by the USF Institutional Animal Care and Use Committee. […] Intraperitoneal PBS injection (200 μL) was used as the control for IL-6 administration. Open field (OF)—The OF behavioral analysis is a test of both locomotor activity and emotionality in rodents (Radyushkin et al. 2009). Mice were placed in a 50×50 cm white Plexiglas box brightly lit by fluorescent room lighting and six 60 W incandescent bulbs approximately 1.5 m above the box. Activity was recorded by a ceiling-mounted video camera and analyzed from digital video files either by the automated tracking capabilities of Ethovision or counted using the behavior tracker (version 1.5, www.behaviortracker.com), a software-based event-recorder. The total distance moved and numbers of entries into the center of the arena (central 17 cm square) were determined in a 10 minute session. […] We also treated control mice (non-IL-6 treated) with the STAT3 inhibitor, S31. […] (10 mg/kg/day)]. […] Heightened anxiety and social interaction deficits are hallmarks of schizophrenia and autism. Reluctance to enter the center portion of a well-lit open field is usually taken as a measure of heightened anxiety under mildly stressful conditions (Smith et al., 2007).

IL-6/MIA adult offspring [6] = assay: Social interaction test in IL-6/MIA adult offspring; assay type: in vivo, mice; settings: for social interaction test, sniffing time: maternal S31-201 or diosmin vs IL-6/MIA, P<0.05; for social interaction test, social impairment (preference for the social chamber): maternal co-treatment with S31-201 4 μg i.p. or diosmin 10 mg/kg/day oral, P<0.005
Method: Pregnant C57BL/6 mice, embryonic day 2 (E2) were obtained from Jackson Laboratory (Bar Harbor, […].) and individually housed and maintained in an animal facility of the University of South Florida (USF). All subsequent experiments were performed in compliance with protocols approved by the USF Institutional Animal Care and Use Committee. […] Intraperitoneal PBS injection (200 μL) was used as the control for IL-6 administration. Social interaction (SI)—The testing apparatus consisted of a 60×40 cm Plexiglas box divided into three chambers. Mice were able to move between chambers through a small opening (6×6 cm) in the dividers. Plastic cylinders in each of the two side chambers contained the probe mice, and numerous 1 cm holes in the cylinders enabled test and probe mice to contact each other. Test mice were placed in the center chamber, with an overhead camera recording their movements. Mice were allowed 5 min of exploration time in the box, after which an unfamiliar, same-sex probe mouse from the same experimental group was placed in one of two restraining cylinders (Radyushkin et al. 2009). The Ethovision software (Noldus, Leesburg, Va.) program measured time spent in each of the three chambers, and social preference was defined as follows: (% time spent in the social chamber)−(% time spent in the opposite chamber). […] We also treated control mice (non-IL-6 treated) with the STAT3 inhibitor, S31. […] (10 mg/kg/day)]. […] Heightened anxiety and social interaction deficits are hallmarks of schizophrenia and autism. Reluctance to enter the center portion of a well-lit open field is usually taken as a measure of heightened anxiety under mildly stressful conditions (Smith et al., 2007).

TNF-α [7] = assay: TNF-α ELISA in brain homogenates of IL-6/MIA adult offspring; assay type: in vivo, mice; settings: maternal co-treatment with S31-201 or diosmin vs IL-6 only; P<0.05
Method: as §2
(§4) At sacrifice, brain homogenates were prepared from offspring of mice treated with IL-6, IL-6/S31-201, IL-6/Diosmin or PBS (control) (n=8, 4 female/4 male). Pro-inflammatory cytokine analysis by ELISA was conducted on these mouse brain homogenates. Data are represented as mean±SD of each cytokine in brain homogenates (pg/mg total protein) from these mice.

IL-1β [8] = assay: IL-1β ELISA in brain homogenates of IL-6/MIA adult offspring; assay type: in vivo, mice; settings: maternal co-treatment with S31-201 or diosmin vs IL-6 only; P<0.05
Method: as §2, §4

[9] = tested on: STAT3 phosphorylation (Ser727); assay: STAT3 phosphorylation in brain homogenates of IL-6/MIA adult offspring, Western blot; assay type: in vivo, mice; settings: maternal co-treatment with S31-201 or diosmin vs IL-6 only; P<0.005
Method: as §1

[10] = after intestinal transformation of diosmin to diosmetin and absorption; cited from earlier work
[11] = tested on: STAT3 activation/phosphorylation induced by IL-6; assay: STAT3 activation induced by IL-6 in cultured neuronal cells (PC12 and N2a), Western blot; assay type: cell-based; settings: dose-dependent
[12] = 500-2,000 mg per day orally for up to one year; cited from earlier work
[13] = tested on: IL-6 induced JAK2 phosphorylation; assay: IL-6 induced JAK2 phosphorylation in N2a and primary neuronal cells, Western blot; assay type: cell-based, murine; settings: IL-6 50 ng/mL, 30 min
Method: (§5) Cerebral cortices were isolated from C57BL/6 mouse embryos, between 15 and 17 days in utero. After 15 min of incubation in trypsin (0.25%) at 37° C., individual cortices were mechanically dissociated. Cells were collected after centrifugation at 1200 rpm, resuspended in DMEM supplemented with 10% fetal calf serum, 10% horse serum, uridine ([…]; Sigma) and fluorodeoxyuridine ([…]; Sigma), and plated in 24 well collagen coated culture plates at a density of 2.5×10^5 cells per well.
(§6) N2a (murine neuroblastoma) cells, purchased from the American Type Culture Collection (ATCC, Manassas, Va.) were grown in complete EMEM supplemented with 10% fetal calf serum. Cells were plated in 24 well collagen coating culture plates at a density of 1×10^5 cells per well. After overnight incubation, N2a cells were incubated in neurobasal media supplemented with 3 mM dibutyryl cAMP in preparation for treatment. […]
(§7) Cultured cells were lysed in ice-cold lysis buffer (20 mM Tris, pH 7.5, 150 mM NaCl, 1 mM EDTA, 1 mM EGTA, 1% v/v Triton X-100, 2.5 mM sodium pyrophosphate, 1 mM β-glycerolphosphate, 1 mM Na3VO4, 1 μg/mL leupeptin, 1 mM PMSF) as described previously (Tan et al. 2002). […] Densitometric analysis was conducted using a FluorS Multiimager with Quantity One™ software (Bio-Rad, Hercules, Calif.). […]

[14] = tested on: IL-6 induced STAT3 phosphorylation (Ser727); assay: IL-6 induced STAT3 phosphorylation in N2a and primary neuronal cells, Western blot; assay type: cell-based, murine; settings: IL-6 50 ng/mL, 30 min
Method: as §5, §6, §7

[15] = dose dependent, N2a and primary neurons

Compound	IL-6 induced JAK2 phosphorylation in newborn brain homogenates [1]	IL-6 induced STAT3 phosphorylation in newborn brain homogenates [2]	reduction of the IL-6 induced increase in TNF-α level, newborn brain homogenates (TNF-α [3]) [%]	reduction of the IL-6 induced increase in IL-1β level, newborn brain homogenates (IL-1β [4]) [%]	open-field test, entries into the center (IL-6/MIA adult offspring [5])	open-field behaviour, inhibitor-treated control (non-IL-6 injected) mice vs PBS-treated mice (IL-6/MIA adult offspring [5]; mouse, in vivo)	social interaction test, sniffing time (IL-6/MIA adult offspring [6])	social interaction test, social impairment (preference for the social chamber) (IL-6/MIA adult offspring [6])	TNF-α cytokine level in adult offspring brain homogenates (TNF-α [7])	IL-1β cytokine level in adult offspring brain homogenates (IL-1β [8])	STAT3 phosphorylation in adult offspring brain homogenates [9]	plasma half-life [10] [h]	inhibition of activation/phosphorylation of STAT3 induced by IL-6 [11]	safety and tolerability in clinical trials [12]	concentration at which significant reductions of JAK2 phosphorylation begin [13, 15] [µM]	effect on apoprotein level of JAK2 ([13]; luteolin 0-20 μM)	concentration at which significant reductions of STAT3 (Ser727) phosphorylation begin [14, 15] [µM]	effect on apoprotein level of STAT3 ([14]; luteolin 0-20 μM)
Cc1ccc(S(=O)(=O)OCC(=O)Nc2ccc(C(=O)O)c(O)c2)cc1 [S31-201]	significantly reduce	significantly reduce	~50	~50	entering the center more often than IL-6 treated animals	did not find a significance	increase in sniffing compared to IL-6/MIA mice	significantly attenuated	significantly reduces	significantly reduces	significant reduction							
COc1ccc(-c2cc(=O)c3c(O)cc(O)cc3o2)cc1O [diosmetin]												26 to 43						
COc1ccc(-c2cc(=O)c3c(O)cc(O[C@@H]4O[C@H](CO[C@@H]5O[C@@H](C)[C@H](O)[C@@H](O)[C@H]5O)[C@@H](O)[C@H](O)[C@H]4O)cc3o2)cc1O [diosmin]	significantly reduce	significantly reduce	~50	~50	entering the center more often than IL-6 treated animals		increase in sniffing compared to IL-6/MIA mice	significantly attenuated	significantly reduces	significantly reduces	significant reduction		inhibit activation/phosphorylation of STAT3	excellent safety profile and were well tolerated				
O=c1cc(-c2ccc(O)c(O)c2)oc2cc(O)cc(O)c12 [luteolin, 3′,4′,5,7-tetrahydroxyflavone]													inhibit activation/phosphorylation of STAT3		10	did not affect	10	did not affect
